Measured values reported in patent US6525178B2, “PGC-1, a novel brown fat PPARgamma coactivator” (Dana-Farber Cancer Institute, priority 1997, dated 2003).

Assays:
PPARδ = target: T1, PPARδ (Homo sapiens, UniProt Q03181); assay: In vitro binding of GST-PGC-1 to in vitro-translated nuclear receptor; details: ligand 1 μM
T1 construct: made in house; host or cells: receptor: reticulocyte lysate in vitro translation (Promega TNT); GST-PGC-1: E. coli
T1 sequence (Q03181 1-441): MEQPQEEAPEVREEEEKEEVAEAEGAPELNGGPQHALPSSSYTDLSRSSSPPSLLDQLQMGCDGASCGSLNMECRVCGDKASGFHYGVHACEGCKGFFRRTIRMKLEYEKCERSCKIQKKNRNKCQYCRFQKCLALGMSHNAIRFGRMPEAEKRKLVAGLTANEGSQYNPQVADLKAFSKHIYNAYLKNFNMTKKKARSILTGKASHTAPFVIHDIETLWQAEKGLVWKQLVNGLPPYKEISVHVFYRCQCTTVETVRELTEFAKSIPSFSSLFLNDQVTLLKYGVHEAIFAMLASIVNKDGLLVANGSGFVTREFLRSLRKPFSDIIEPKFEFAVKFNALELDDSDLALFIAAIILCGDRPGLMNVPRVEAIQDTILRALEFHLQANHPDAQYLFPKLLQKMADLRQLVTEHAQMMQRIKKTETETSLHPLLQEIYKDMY
T1 sequence (O70343 36-797 partner limits assumed): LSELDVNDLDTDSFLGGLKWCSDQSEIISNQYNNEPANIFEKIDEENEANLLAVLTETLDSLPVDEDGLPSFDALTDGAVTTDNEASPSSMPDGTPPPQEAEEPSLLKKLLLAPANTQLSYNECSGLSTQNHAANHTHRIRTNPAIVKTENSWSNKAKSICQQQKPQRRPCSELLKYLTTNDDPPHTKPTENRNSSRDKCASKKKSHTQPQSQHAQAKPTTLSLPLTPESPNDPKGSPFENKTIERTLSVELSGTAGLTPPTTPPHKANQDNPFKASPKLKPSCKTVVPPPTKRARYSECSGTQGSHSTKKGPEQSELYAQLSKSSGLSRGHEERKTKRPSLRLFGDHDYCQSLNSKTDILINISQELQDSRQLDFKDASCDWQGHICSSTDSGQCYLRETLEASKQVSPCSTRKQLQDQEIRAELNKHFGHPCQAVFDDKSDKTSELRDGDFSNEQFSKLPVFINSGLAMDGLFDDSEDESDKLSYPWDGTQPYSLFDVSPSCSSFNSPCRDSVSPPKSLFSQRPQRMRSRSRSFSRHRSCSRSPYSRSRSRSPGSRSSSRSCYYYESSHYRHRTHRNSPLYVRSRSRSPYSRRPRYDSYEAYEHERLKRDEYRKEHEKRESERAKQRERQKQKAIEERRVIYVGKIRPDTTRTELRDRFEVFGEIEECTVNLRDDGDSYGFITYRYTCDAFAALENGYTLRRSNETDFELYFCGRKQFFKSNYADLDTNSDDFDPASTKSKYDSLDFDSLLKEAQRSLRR
Procedure: (§1) The assays were carried out as follows.

retinoic acid receptor = target: T2, retinoic acid receptor (Homo sapiens, UniProt P10276); assay: as above; details: ligand 1 μM
T2 sequence (P10276 1-462): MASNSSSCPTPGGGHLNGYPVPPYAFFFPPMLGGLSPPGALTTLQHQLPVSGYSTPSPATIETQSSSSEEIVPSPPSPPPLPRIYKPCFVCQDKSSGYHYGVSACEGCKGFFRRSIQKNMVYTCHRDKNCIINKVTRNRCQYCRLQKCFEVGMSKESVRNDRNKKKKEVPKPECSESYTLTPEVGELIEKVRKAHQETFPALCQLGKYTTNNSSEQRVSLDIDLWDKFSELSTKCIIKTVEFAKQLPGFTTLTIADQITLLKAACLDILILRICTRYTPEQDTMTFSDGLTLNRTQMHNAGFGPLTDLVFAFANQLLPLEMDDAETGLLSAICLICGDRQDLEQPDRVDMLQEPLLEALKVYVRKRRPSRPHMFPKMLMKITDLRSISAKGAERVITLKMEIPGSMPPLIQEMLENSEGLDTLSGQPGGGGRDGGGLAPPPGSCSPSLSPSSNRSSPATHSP
T2 sequence (O70343 36-797 partner limits assumed): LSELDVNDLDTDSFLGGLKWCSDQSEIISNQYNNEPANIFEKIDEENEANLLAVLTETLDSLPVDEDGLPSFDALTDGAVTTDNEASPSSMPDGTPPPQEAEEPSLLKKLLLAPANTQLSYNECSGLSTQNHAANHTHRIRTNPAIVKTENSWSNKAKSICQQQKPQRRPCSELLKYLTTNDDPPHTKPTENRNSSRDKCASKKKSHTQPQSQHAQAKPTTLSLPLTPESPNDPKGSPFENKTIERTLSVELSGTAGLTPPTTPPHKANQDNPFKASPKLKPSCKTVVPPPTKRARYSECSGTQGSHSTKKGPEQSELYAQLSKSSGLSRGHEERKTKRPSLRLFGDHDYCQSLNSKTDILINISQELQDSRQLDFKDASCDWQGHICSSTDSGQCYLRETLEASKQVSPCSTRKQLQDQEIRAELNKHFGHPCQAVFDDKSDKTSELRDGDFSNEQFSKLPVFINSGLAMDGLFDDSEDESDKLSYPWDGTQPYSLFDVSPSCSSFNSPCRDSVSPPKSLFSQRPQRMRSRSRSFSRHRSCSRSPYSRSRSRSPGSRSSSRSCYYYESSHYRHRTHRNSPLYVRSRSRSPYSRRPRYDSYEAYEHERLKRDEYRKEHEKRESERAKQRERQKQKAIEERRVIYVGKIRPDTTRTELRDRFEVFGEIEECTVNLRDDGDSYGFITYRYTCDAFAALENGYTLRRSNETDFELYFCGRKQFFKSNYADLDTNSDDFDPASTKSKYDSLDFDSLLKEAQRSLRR
Procedure: These fusion proteins were expressed, and purified from E. coli on beads containing approximately 1 μg of protein (either GST, or alone, or fused to PGC-1), 30 μl was resuspended i the binding buffer (20 mM HEPES [pH 7.7], 75 mM KCl, 0.1 mM EDTA, 2.5 mM MgCl2, 0.05% NP40,2 mM DTT, 10% glycerol).
The assays were carried out as follows. […] After electrophoresis, fixation, and enhancement, the radiolabeled proteins were visualized by autoradiography.

HIB 1B brown fat cells = assay: Northern analysis of PGC-1 and UCP-1 mRNA in treated HIB 1B brown fat cells; format: cell-based, mouse; details: HIB 1B cells, 1 μM, 10 hr
Excerpt: Cold is sensed in the central nervous system and results in increased sympathetic output to peripheral tissues, including muscle and brown fat Himms-Hagen (1989) Can. J. Physiol Pharmcol. 67:394-401). Cold exposure can be mimicked, in terms of brown adipocyte precursor cell growth and the induction of UCP-1, by exposure of cultured brown fat cells to β-adrenergic agonists (Rehnmark et al. (1990) J. Biol. Chem. 25:16464-16471). To determine if PGC-1 gene expression is also sensitive to β-adrenergic agonists, HIB 1B brown fat cells were treated with isoproterenol (1 μM), a nonsubtype selective β agonist, for 10 hr. Total cellular RNA was isolated and analyzed using PGC-1 and UCP-1 cDNA probes.
Briefly, HIB 1B brown fat preadipocytes were differentiated as described herein. After 6 days, cells were approximately 80% differentiated.

PPARα = target: T3, PPARα (Homo sapiens, UniProt Q07869); assay: In vitro binding of GST-PGC-1 to in vitro-translated nuclear receptor; details: ligand 1 μM
T3 construct: made in house; host or cells: receptor: reticulocyte lysate in vitro translation (Promega TNT); GST-PGC-1: E. coli
T3 sequence (Q07869 1-468): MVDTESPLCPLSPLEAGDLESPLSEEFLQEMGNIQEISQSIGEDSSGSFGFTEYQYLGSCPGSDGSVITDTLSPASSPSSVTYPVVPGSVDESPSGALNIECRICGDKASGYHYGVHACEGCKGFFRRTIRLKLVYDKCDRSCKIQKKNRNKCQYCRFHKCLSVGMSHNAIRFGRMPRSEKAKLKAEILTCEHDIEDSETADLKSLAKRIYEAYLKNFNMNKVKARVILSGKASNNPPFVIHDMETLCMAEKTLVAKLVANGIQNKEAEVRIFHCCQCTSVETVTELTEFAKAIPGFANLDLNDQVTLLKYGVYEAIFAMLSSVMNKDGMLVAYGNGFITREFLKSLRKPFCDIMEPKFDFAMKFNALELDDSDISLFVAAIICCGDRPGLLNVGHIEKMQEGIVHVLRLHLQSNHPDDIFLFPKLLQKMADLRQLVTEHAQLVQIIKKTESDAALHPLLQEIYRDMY
T3 sequence (O70343 36-797 partner limits assumed): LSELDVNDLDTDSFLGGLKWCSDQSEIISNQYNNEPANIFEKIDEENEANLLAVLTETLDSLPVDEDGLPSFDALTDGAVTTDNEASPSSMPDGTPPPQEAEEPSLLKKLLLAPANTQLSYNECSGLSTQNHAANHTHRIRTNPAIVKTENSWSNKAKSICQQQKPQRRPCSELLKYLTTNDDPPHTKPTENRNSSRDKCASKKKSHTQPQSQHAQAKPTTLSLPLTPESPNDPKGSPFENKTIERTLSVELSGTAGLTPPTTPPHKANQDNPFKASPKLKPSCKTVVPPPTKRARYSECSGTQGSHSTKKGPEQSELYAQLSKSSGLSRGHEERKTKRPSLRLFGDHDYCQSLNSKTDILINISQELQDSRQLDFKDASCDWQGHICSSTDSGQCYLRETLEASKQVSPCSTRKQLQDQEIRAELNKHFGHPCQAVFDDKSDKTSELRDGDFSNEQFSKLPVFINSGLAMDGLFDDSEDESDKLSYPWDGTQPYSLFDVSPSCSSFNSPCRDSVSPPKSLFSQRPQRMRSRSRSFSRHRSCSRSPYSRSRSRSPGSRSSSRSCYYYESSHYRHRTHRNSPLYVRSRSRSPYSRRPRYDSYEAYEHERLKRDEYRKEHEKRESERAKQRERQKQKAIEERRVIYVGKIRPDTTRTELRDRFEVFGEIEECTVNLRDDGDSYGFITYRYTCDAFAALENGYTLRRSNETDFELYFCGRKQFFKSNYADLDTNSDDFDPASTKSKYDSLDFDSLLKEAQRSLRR
Procedure: as §1

PPARγ = assay: Binding of in vitro-translated PGC-1 C-terminal deletions to immobilized PPARγ fusion protein; design: species or system mouse; details: 35S-labelled PGC-1 deletions
Excerpt: The interaction between nuclear receptors and certain coactivators such as SRC-1 or CBP is ligand dependent (Kamai et al. (1996) Cell 84:403-414) and involves an LXXLL (SEQ ID NO:3) motif in the coactivators and the C-terminal AF-2 domain in the receptors (Heery et al. (1997) Nature 387:733-736; Torchia et al. (1997) Nature 387:677-684). To identify the domains responsible for PGC-1-PPARγ interactions, different C-terminal deletions of PGC-1 were generated as reticulocyte translation products and mixed with a […] fusion protein. Deletions of PGC-1 were made using specific restriction sites in the PGC-1 cDNA closed in pBluescript. The following restriction enzymes were used for these deletions: full-length Xhol (aa-1-797), Haell (aa 1-675) Ncol (aa 1-503), Xbal (aa 1-403), Kpnl (aa 1-338), and Stul (aa 1-292). These were then translated into vitro with an [^35S]methionine-label. One microliter of each in vitro translation reaction was resolved by SDS-PAGE and autoradiographed.
FIG. 4 summarizes the input of both the full-length PGC-1(1-797) and the 1-675 deletion which bind to the immobilized PPARγ.

PPARγ, sequence (P37238 183-505 limits assumed): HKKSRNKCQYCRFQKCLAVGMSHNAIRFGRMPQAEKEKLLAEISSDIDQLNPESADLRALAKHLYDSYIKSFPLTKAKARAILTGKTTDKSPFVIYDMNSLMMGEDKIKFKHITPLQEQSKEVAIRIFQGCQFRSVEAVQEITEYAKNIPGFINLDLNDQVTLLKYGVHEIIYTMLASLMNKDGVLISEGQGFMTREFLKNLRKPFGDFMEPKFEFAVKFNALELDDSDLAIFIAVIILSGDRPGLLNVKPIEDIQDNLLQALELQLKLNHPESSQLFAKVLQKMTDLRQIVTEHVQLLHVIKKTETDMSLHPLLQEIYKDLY

With `CCCCC[C@H](O)/C=C/[C@@H]1[C@H]2C/C(=C/CCCC(=O)O)C[C@H]2C[C@H]1O` [carboprostacyclin] the “ligand dependency of PGC-1 interaction with PPARδ” value (PPARδ) was “slight ligand dependency”.

For `CC1=C(/C=C/C(C)=C/C=C/C(C)=C/C(=O)O)C(C)(C)CCC1` [all-trans retinoic acid], the “ligand dependency of PGC-1 interaction with the retinoic acid receptor” value (retinoic acid receptor) was “strong ligand dependency”.

`CC(C)NCC(O)c1ccc(O)c(O)c1` (stereo not shown) [isoproterenol] was tested, and the “PGC-1 mRNA” value (HIB 1B brown fat cells) was “sharp increase” and the “UCP-1 mRNA” value (HIB 1B brown fat cells) was “sharp increase”.

With `CCCCC/C=C\C[C@@H](O)/C=C/C=C/C=C\[C@@H](O)CCCC(=O)O` [leukotriene-4] the “ligand dependency of PGC-1 interaction with PPARα” value (PPARα) was “slight ligand dependency”.

B1: PGC-1 1-503: C-terminal deletion of PGC-1, aa 1-503, lacks the SR and RNA-binding domains (protein)
chain: MAWDMCSQDSVWSDIECAALVGEDQPLCPDLPELDLSELDVNDLDTDSFLGGLKWCSDQSEIISNQYNNEPANIFEKIDEENEANLLAVLTETLDSLPVDEDGLPSFDALTDGAVTTDNEASPSSMPDGTPPPQEAEEPSLLKKLLLAPANTQLSYNECSGLSTQNHAANHTHRIRTNPAIVKTENSWSNKAKSICQQQKPQRRPCSELLKYLTTNDDPPHTKPTENRNSSRDKCASKKKSHTQPQSQHAQAKPTTLSLPLTPESPNDPKGSPFENKTIERTLSVELSGTAGLTPPTTPPHKANQDNPFKASPKLKPSCKTVVPPPTKRARYSECSGTQGSHSTKKGPEQSELYAQLSKSSGLSRGHEERKTKRPSLRLFGDHDYCQSLNSKTDILINISQELQDSRQLDFKDASCDWQGHICSSTDSGQCYLRETLEASKQVSPCSTRKQLQDQEIRAELNKHFGHPCQAVFDDKSDKTSELRDGDFSNEQFSKLPVFINSG
For B1, the “percentage of input material that bound to PPARγ” value (PPARγ) was 18%.

B2: PGC-1 1-292: C-terminal deletion of PGC-1, aa 1-292, still contains the LXXLL motif (protein)
chain: MAWDMCSQDSVWSDIECAALVGEDQPLCPDLPELDLSELDVNDLDTDSFLGGLKWCSDQSEIISNQYNNEPANIFEKIDEENEANLLAVLTETLDSLPVDEDGLPSFDALTDGAVTTDNEASPSSMPDGTPPPQEAEEPSLLKKLLLAPANTQLSYNECSGLSTQNHAANHTHRIRTNPAIVKTENSWSNKAKSICQQQKPQRRPCSELLKYLTTNDDPPHTKPTENRNSSRDKCASKKKSHTQPQSQHAQAKPTTLSLPLTPESPNDPKGSPFENKTIERTLSVELSGTAG
In the case of B2, the “percentage of input material that bound to PPARγ” value (PPARγ) is reported as “completely loses the ability to interact with PPARγ”.
